The source of these data is patent US11740235B2, “Model-membrane-based lipid transfer assays and methods” (Regents of the University of Minnesota, priority 2019, dated 2023).

Common to all, as to type: biochemical
For assay [1], the target named is T1, ACD11 (Arabidopsis thaliana, UniProt O64587).
T1 construct: 6xHis-SUMO (N, cleaved yes); made in house; host or cells: E. coli BL21 (DE3)-pLysS or -Star
T1 sequence (O64587 1-206): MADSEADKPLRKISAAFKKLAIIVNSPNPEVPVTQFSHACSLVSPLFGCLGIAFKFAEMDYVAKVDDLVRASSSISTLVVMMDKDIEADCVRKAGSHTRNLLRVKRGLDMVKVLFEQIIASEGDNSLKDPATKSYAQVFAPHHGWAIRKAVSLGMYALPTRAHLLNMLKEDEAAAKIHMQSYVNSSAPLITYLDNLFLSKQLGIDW
Nature of the assay: Bicelle-dilution FRET assay, competitive inhibition of BODIPY-C1P transfer. Conditions: increasing concentrations in donor bd-vesicles; donor q=0.5, acceptor q=0.5. The text has this: The C1P derivative, diethyl-C1P, can inhibit cytosolic phospholipase A2α (cPLA2α) activity when the C1P acyl chain is short—e.g., C2-diethyl-C1P. The inhibition of cPLA2α by C2-diethyl-C1P presumably occurs via interaction with the cPLA2α C2-domain, which contains a C1P binding site that activates cPLA2α by enhancing translocation to membranes. To date, no inhibitors of C1P transfer proteins (e.g., CPTP and ACD11) have been reported. The bicelle-dilution FRET assay was used to test whether C2-diethyl-C1P can inhibit the plant CPTP ortholog, ACD11. […]
(§1) Real-time intermembrane transfer rates of fluorescent sphingolipids were obtained by Förster resonance energy transfer (FRET) using a SPEX FluoroLog3 spectrofluorometer (Horiba Scientific, Ltd., Kyoto, Japan), with excitation and emission band passes of 2 nm and a stirred (˜100 rpm), temperature-controlled (25±0.1° C.) sample cuvette holder. […] Either sonicated POPC vesicles or b-d POPC/DHPC model membranes served as receiver (acceptor) model membranes, which produced minimal change in fluorescence signal when added in excess (Mattjus et al., 1999, Anal. Biochem. 268:297-304). […]

Assay [2] has as its target T1, ACD11. Nature of the assay: Bicelle-dilution FRET lipid transfer assay, lipid specificity. Conditions: donor q=0.5, acceptor q=0.5. How it is done:
(§2) For experiments requiring ˜10 kinetic assays, donor stock lipid mixtures (0.5 q-value) were prepared by combining POPC (0.39 μmol), BODIPY-15-SL (0.004 μmol), DiI-C18 (0.006 μmol) and DHPC (0.8 μmol) from stock solvent solutions of hexane/ethanol (9:1) or chloroform/methanol (8:2). Acceptor stock lipid mixtures (0.5 q-value) were prepared by combining POPC (2 μmol) and DHPC (4 μmol) from stock solvent solutions. Total solvent volume in the clean glass vials containing inverted conical bottoms was approximately 100 μl. For other q-value stocks, the amount of DHPC was adjusted accordingly. Dry films of the lipid mixtures were obtained using a stream of nitrogen to evaporate all solvent at room temperature. The dry lipid films were hydrated by adding 200 μl of assay buffer (10 mM potassium phosphate, pH 6.6, 150 mM NaCl, and 0.2% EDTA) and then vortexed vigorously for at least five minutes to achieve optical clarity. For stocks with q-values of 1 or 2, lipid mixtures were not only vortexed vigorously but also sonicated briefly (2 to 3 minutes). All stocks were equilibrated overnight at room temperature prior to use in the lipid transfer assay regardless of q-value [q-value for donors=(POPC+BODIPY-15-SL+DiIC18)/DHPC; q-value for acceptors=POPC/DHPC]. Immediately prior to use in the FRET lipid transfer assay, donor and acceptor stocks were centrifuged for 10 minutes at 13,000 rpm. The FRET lipid transfer assay as performed as follows: donor stock (20 μl) was diluted into a stirred temperature-controlled cuvette containing assay buffer an equilibrated for two minutes to ensure a stable signal response. Next, acceptor stock (20 μl was diluted into the stirred cuvette and equilibrated for four minutes prior to initiating sphingolipid transfer by adding lipid transfer protein (2 μg) to a final cuvette volume of 2.5 ml. The total lipid concentration was 288 μM for assays using a 5:1 acceptor-to-donor ratio and was higher when more acceptors were added to increase transfer equilibrium from the donors.
(§3) Real-time intermembrane transfer rates of fluorescent sphingolipids were obtained by Förster resonance energy transfer (FRET) using a SPEX FluoroLog3 spectrofluorometer (Horiba Scientific, Ltd., Kyoto, Japan), with excitation and emission band passes of 2 nm and a stirred (˜100 rpm), temperature-controlled (25±0.1° C.) sample cuvette holder. All fluorescent lipids were localized initially to the SL-source (donor) vesicles (formed by rapid ethanol injection or probe sonication) or SL-source (donor) b-d model membranes. Minimal BODIPY-lipid emission occurred upon excitation (460 nm) due to resonance energy transfer to nearby C18-DiI. Either sonicated POPC vesicles or b-d POPC/DHPC model membranes served as receiver (acceptor) model membranes, which produced minimal change in fluorescence signal when added in excess (Mattjus et al., 1999, Anal. Biochem. 268:297-304). The final receiver (acceptor) vesicle concentration in the FRET lipid transfer assay was ˜240 μM to 1440 μM, which was five-fold to 30-fold higher than the SL-source (donor) vesicle concentration. Protein addition triggered a sudden, hyperbolic increase in BODIPY emission intensity (503 nm) as FRET decreased due to protein transport of fluorescent glycolipids from SL-source (donor) vesicles to receiver (acceptor) vesicles, creating separation from nontransferable C18-DiI lipid, as the protein delivers the BODIPY-SL to the excess POPC receiver vesicles or POPC/DHPC bicelles. Addition of Tween-20 detergent after extended incubation provided a measure of maximum intensity achievable by “infinite” fluorophore separation.

Assay [3] addresses T2, GLTP (Homo sapiens, UniProt Q9NZD2).
T2 construct: 6xHis-SUMO (N, cleaved yes); made in house; host or cells: E. coli BL21 (DE3)-pLysS or -Star
T2 sequence (Q9NZD2 1-209): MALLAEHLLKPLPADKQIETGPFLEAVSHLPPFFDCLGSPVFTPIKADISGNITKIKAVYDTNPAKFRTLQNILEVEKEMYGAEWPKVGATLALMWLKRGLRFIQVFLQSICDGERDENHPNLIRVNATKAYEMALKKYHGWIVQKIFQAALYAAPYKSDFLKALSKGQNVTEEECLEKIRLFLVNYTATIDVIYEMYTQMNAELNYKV
The description is as above. Conditions: for transfer by GLTP between bd donors and acceptors: donor q=0.5, acceptor q=0.5. The method, then:
as §2, §3

The next assay concerns GFP-GLTP. Nature of the assay: Bicelle-dilution FRET lipid transfer assay with HeLa cell lysate. Conditions: lysate of transfected HeLa cells, 10 μl aliquots; donor q=0.5, acceptor q=0.5. The method, then: (§4) FIG. 14. Bicelle-dilution-model-membrane-assay detection of transfer activity by GLTP and CPTP expressed in HeLa cells after transient transfection with GFP-GLTP or GFP-CPTP. Cells were disrupted by brief probe sonication (30 sec×2) on ice. Cell supernatants were recovered by benchtop centrifugation (5 min @ 12,000 rpm) at 4° C. and then 10 μl aliquots were assayed for LTP activity. (Donor: q=0.5; Acceptor: q=0.5).
(§5) HeLa cells were plated on 100-mm dishes and transfected with different vectors using Lipofectamine 2000 (Invitrogen, Carlsbad, Calif.). At 24 hours post-transfection, cells were harvested by trypsinization, washed with phosphate-buffered saline (PBS) by benchtop centrifugation and then suspended in PBS buffer (200 μl). Disruption of the HeLa cells was accomplished by brief probe sonication (2×30 seconds) on ice. Cell supernatants were recovered by benchtop centrifugation (5 minutes at 12,000 rpm) at 4° C. and 10 μl aliquots were assayed for SLTP activity using donor bicelle-dilution vesicles containing either Me4-BODIPY-GalCer or Me4-BODIPY-C1P along with C18-DiI.

A further assay concerns GFP-CPTP. The assay is described as above. Conditions: lysate of transfected HeLa cells, 10 μl aliquots; donor q=0.5, acceptor q=0.5. The method, then: as §4, §5
Chain of GFP-CPTP (Q5TA50 whole entry): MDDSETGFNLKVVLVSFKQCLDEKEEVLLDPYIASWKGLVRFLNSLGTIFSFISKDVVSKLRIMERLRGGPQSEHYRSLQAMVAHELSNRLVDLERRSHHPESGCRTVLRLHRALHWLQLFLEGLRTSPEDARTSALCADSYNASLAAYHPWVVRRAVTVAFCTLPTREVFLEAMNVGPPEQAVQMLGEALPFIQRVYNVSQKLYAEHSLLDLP
Assay [4] addresses T2, GLTP. Nature of the assay: FRET lipid transfer control with DHPC in assay buffer, ethanol-injection donors and sonicated acceptors. Conditions: DHPC 352 μM and 672 μM in assay buffer; ethanol-injection donors, sonicated acceptors (5×). How it is done: Small phosphatidylcholine vesicles (25-40 nm diameters) have typically been used as model membranes to assess lipid inter-bilayer transfer because of the faster transfer rates compared to those obtained using larger vesicles. Different donor and acceptor combinations were tested involving either small vesicles and/or 0.5 q-value bicelle dilution vesicles (bd-vesicles) to determine which combination produced the fastest intermembrane transfer rates. […] When the donor vesicles were produced by sonication, sphingolipid transfer rates were markedly slowed regardless of whether the acceptors were bd-vesicles or sonicated vesicles. […] Thus, similar high assay sensitivity can be achieved using the bicelle-to-bicelle transfer conditions as for vesicle-to-vesicle transfer conditions. […]
as §1

Entries after “also recorded” stand apart in the source; their conditions may differ.

Turning to ceramide-1-phosphate [C1P], the “competition effect on ACD11-mediated transfer rates of Me4-BODIPY C1P” value on ACD11 [1] is “Slowing of ACD11 transfer of BODIPY-C1P; also recorded: slow the inter-bicelles transfer rates”.

Regarding “Me4-BODIPY-15-galactosylceramide [Me4-BODIPY GalCer]”, the “transfer by ACD11 between bd donors and acceptors” value at ACD11 [2] was “not”. For the same compound, on GLTP [3] (bicelle-dilution vesicles, 100% estimated by Tween-20 solubilization), the “transfer equilibrium by GLTP” value is recorded as ~70%. Also, the “transfer by GLTP between bd donors and acceptors” value on GLTP [3] is recorded as “is detected”; at GLTP [3] (listed as BODIPY-GalCer), “transfer”. Besides, the “bd-vesicle-to-bd-vesicle transfer by GFP-GLTP” value with GFP-GLTP is given as “transfer”.

In the case of “Me4-BODIPY-15-ceramide-1-phosphate [Me4-BODIPY C1P]”, the entries for the “transfer by ACD11 between bd donors and acceptors” value on ACD11 [2] and on ACD11 [2] (listed as BODIPY-C1P) were “specifically transfers” and “transfer”, respectively. In addition, at GLTP [3], the “transfer by GLTP between bd donors and acceptors” value is given as “not”. Further, the “bd-vesicle-to-bd-vesicle transfer by GFP-CPTP” value in the assay on GFP-CPTP is “transfer”. In addition, in the assay with GFP-GLTP, the “bd-vesicle-to-bd-vesicle transfer by GFP-GLTP” value is recorded as “not”.

In the case of `CCCCCC(=O)OC[C@H](COP(=O)([O-])OCC[N+](C)(C)C)OC(=O)CCCCC` [DHPC, 1,2-hexanoyl-sn-glycero-3-phosphocholine], on GLTP [4], the “effect on GLTP transfer rate of Me4-BODIPY-GalCer” value was “Lack of significant effect; also recorded: Minimal affect”.
